{
  "source": "patent US20220056484A1",
  "about": "“SELECTION BY MEANS OF ARTIFICIAL TRANSACTIVATORS” (Ospedale San Raffaele S.R.L., priority 2018, published 2022)",
  "system": "CXCR4 selector in IL2RG locus, CD34+ cells",
  "test": "SMArT-D in CD34+ cells, IL2RG locus, CXCR4 selector",
  "type": "cell-based, human",
  "conditions": "lower dose (80 nM), after washout",
  "protocol": "CD34+ cells were edited according to a previously optimized protocol (Schiroli et al., 2017). Briefly, 5×10^5 CD34+ cells/ml were stimulated in serum-free StemSpan medium (StemCell Technologies) supplemented with penicillin, streptomycin, glutamine, 1 μM SR-1 (Biovision), 50 μM UM171 (STEMCell Technologies), 10 μM PGE2 added only at the beginning of the culture (Cayman), and human early-acting cytokines (SCF 100 ng/ml, Flt3-L 100 ng/ml, TPO 20 ng/ml, and IL-6 20 ng/ml; all purchased from Peprotech). After 3 days of pre-stimulation, cells were washed with PBS and electroporated using P3 Primary Cell 4D-Nucleofector X Kit and program EO-100 (Lonza). Cells were electroporated with 2.5-1.25 μM of RNPs. Transduction with AAV6 was performed at a dose of 1×10^4 vg/cell 15′ after electroporation. […] Gene editing efficiency was measured from cultured cells in vitro 3 days after electroporation by flow cytometry measuring the percentage of cells expressing the GFP/truncated NGFR/CXCR4 marker or by digital droplet PCR analysis designing primers and probe on the junction between the vector sequence and the targeted locus and on control sequences utilized as normalizer.",
  "data": [
    {"smiles": "C[C@H]1c2cccc(O)c2C(=O)C2=C(O)[C@]3(O)C(=O)C(C(N)=O)=C(O)[C@@H](N(C)C)[C@@H]3[C@@H](O)[C@@H]21", "note": "[doxycycline]", "values": [
      {"measurement": "CXCR4-overexpressing cells in the most primitive compartment", "result": "up to 13%"}
    ]}
  ]
}
